Where only a bound is given, the exact number is not on record here.

Data set [1] in a line: Mycelial growth inhibition on plate medium against industrial material deteriorating microorganisms, treatment at 50 mg/l. The conditions noted are these: read-out: Growth inhibition grade.
Description: Compound (I) was dissolved in 2 ml of dimethyl sulfoxide. 0.6 ml of this solution was added to 60 ml of a PDA medium (potato dextrose agar medium) and at about 60 degrees C., which was mixed thoroughly in a 100-ml conical flask, and poured into a dish, where it was solidified, thereby obtaining a plate medium containing the inventive compound at a certain concentration.
On the other hand, a subject microorganism previously cultured on a plate medium was cut out using a cork borer whose diameter was 4 mm, and inoculated to the test compound-containing plate medium described above. […] The growth degree of the microorganism on the test compound-containing plate medium was compared with the growth degree of the microorganism in the untreated group, and % mycelial growth inhibition was calculated by the following equation.
wherein R=% mycelial extension inhibition, dc=flora diameter in untreated plate, dt=flora diameter in treated plate.
The results obtained were evaluated as one of the 5 grades in accordance with the following criteria.
<Growth Inhibition Grade>
4: % Mycerial growth inhibition of less than 80 to 60% or higher
3: % Mycerial growth inhibition of less than 60 to 40% or higher
2: % Mycerial growth inhibition of less than 40 to 20% or higher
Data set [2] has as its system various phytopathogenic fungi for plants and hazardous microorganism for industrial materials. In words: microbe, parasite or virus in culture. Type of data set: cell-based. Details: dose or concentration left out as unconfirmed.
The mark [3] stands for this setting: Alternaria alternata, read-out: Growth inhibition grade, A.m.
Setting [4] is: Fusarium graminearum, read-out: Growth inhibition grade, F.g.
Setting [5] is: Parastagonospora nodorum, read-out: Growth inhibition grade, P.n.
The mark [6] stands for this setting: Pyricularia oryzae, read-out: Growth inhibition grade, P.o.
[7] abbreviates: Rhynchosporium secalis, read-out: Growth inhibition grade, R.sec.
Setting [8] is: Sclerotinia sclerotiorum, read-out: Growth inhibition grade, S.s.
The mark [9] stands for this setting: Ustilago nuda, read-out: Growth inhibition grade, U.n.
[10] abbreviates: read-out: Growth inhibition grade, B.c.
[11] abbreviates: read-out: Growth inhibition grade, F.c.
Where [12] appears, read: read-out: Growth inhibition grade, G.f.
Setting [13] is: read-out: Growth inhibition grade, P.h.

In the case of `OC(Cn1cncn1)(C1CC1(Cl)Cl)C1(Cl)CC1` (single isomer, unassigned) [I-2a, 1-(1-chlorocyclopropyl)-1-(2,2-dichlorocyclopropyl)-2-(1H-1,2,4-triazol-1-yl)ethanol], the inhibition (as a rule, the percentage by which the read-out fell short of the control) at 50 µg/mL in data set [1] was 60 to 80%. Further, the inhibition in data set [2] (setting [3]), in data set [2] (setting [4]), in data set [2] (setting [5]), in data set [2] (setting [6]), in data set [2] (setting [7]) and in data set [2] (setting [8]) was above 80% throughout. Besides, the inhibition in data set [2] (setting [9]), in data set [2] (setting [10]), in data set [2] (setting [11]), in data set [2] (setting [12]) and in data set [2] (setting [13]) was above 80% throughout.

In the case of `OC(CC1CC1(Br)Br)(Cn1cncn1)C1(Cl)CC1` (single isomer, unassigned) [I-210a, 2-(1-chlorocyclopropyl)-1-(2,2-dibromocyclopropyl)-3-(1H-1,2,4-triazol-1-yl)propan-2-ol], the melting point (commonly the temperature, or range, at which the solid turns liquid) is 114 °C. Besides, the inhibition at 50 µg/mL in data set [1] is 60 to 80%. The inhibition in data set [2] (setting [3]) was above 80%. The inhibition in data set [2] (setting [4]) was above 80%. In data set [2] (setting [5]), the inhibition was above 80%. In addition, the inhibition in data set [2] (setting [6]) is above 80%. The inhibition in data set [2] (setting [7]) was above 80%. In addition, the inhibition in data set [2] (setting [8]) is above 80%. For the same compound, the inhibition in data set [2] (setting [9]) is above 80%. Besides, the inhibition in data set [2] (setting [10]) is above 80%. Further, the inhibition in data set [2] (setting [11]) was above 80%. Moreover, the inhibition in data set [2] (setting [12]) is above 80%. The inhibition in data set [2] (setting [13]) was above 80%.

The compound `OC(CC1CC1(Cl)Cl)(CC1CC1(Cl)Cl)Cn1cncn1` (single isomer, unassigned) [I-277a, 1,3-bis(2,2-dichlorocyclopropyl)-2-(1H-1,2,4-triazol-1-ylmethyl)propan-2-ol] yielded a melting point of 114 to 115 °C.

For `OC(CC1CC1(Cl)Cl)(CC1CC1(Cl)Cl)Cn1cncn1` (single isomer, unassigned) [I-277b, 1,3-bis(2,2-dichlorocyclopropyl)-2-(1H-1,2,4-triazol-1-ylmethyl)propan-2-ol], the melting point fell in the range of 105 to 106.5 °C.

For `OC(CCC1CC1(Cl)Cl)(Cn1cncn1)C1(Cl)CC1` (single isomer, unassigned) [I-607a, 2-(1-chlorocyclopropyl)-4-(2,2-dichlorocyclopropyl)-1-(1H-1,2,4-triazol-1-yl)butan-2-ol], the melting point fell in the range of 130 to 131 °C. In addition, the inhibition in data set [2] (setting [3]) is above 80%. The inhibition in data set [2] (setting [4]) is above 80%. The inhibition in data set [2] (setting [5]) was above 80%. Also, in data set [2] (setting [6]), the inhibition is above 80%. In addition, the inhibition in data set [2] (setting [7]) was above 80%. Further, in data set [2] (setting [8]), the inhibition was above 80%. Further, in data set [2] (setting [9]), the inhibition was above 80%. Moreover, the inhibition in data set [2] (setting [10]) was above 80%. In addition, the inhibition in data set [2] (setting [11]) was above 80%. For the same compound, the inhibition in data set [2] (setting [12]) is above 80%. The inhibition in data set [2] (setting [13]) was above 80%.

In the case of `OC(CCC1CC1(Cl)Cl)(Cn1cncn1)C1(Cl)CC1` (single isomer, unassigned) [I-607b, 2-(1-chlorocyclopropyl)-4-(2,2-dichlorocyclopropyl)-1-(1H-1,2,4-triazol-1-yl)butan-2-ol], the melting point was in the range of 83 to 84 °C. Besides, the inhibition at 50 µg/mL in data set [1] lay in the range of 60 to 80%.

The record behind these values is US20120238762A1, “AZOLE DERIVATIVES AND METHODS FOR PRODUCING THE SAME, INTERMEDIATE COMPOUNDS FOR THE DERIVATIVES AND METHODS FOR PRODUCING THE SAME, AND AGRO-HORTICULTURAL AGENTS AND INDUSTRIAL MATERIAL PROTECTING AGENTS CONTAINING THE DERIVATIVES” (KUREHA CORPORATION, priority 2009, published 2012).
